Experimental findings from a melting point compilation (Tetko et al.; mined from patent text by program, amines drawn as free bases though some values may be those of a salt) are described below.

Bounds are passed on as bounds.

The term melting point denotes the temperature, or range, at which the solid turns liquid.

The compound `CCOC(=O)c1c(Cl)nc(-c2ccccc2)c([N+](=O)[O-])c1C(=O)OCC` yielded a melting point of 65 to 66 °C.

As to `Cc1nnc(-c2ccc3occ(C(=O)N4CCOCC4)c3c2)o1`, the melting point was in the range of 168 to 169 °C.

`CN(CCO)c1ccc(C=Cc2ccc(S(C)(=O)=O)cc2)cc1` returned a melting point of 201 to 204 °C.

`O=C(CBr)c1ccc(O)c(CO)c1` had a melting point of 117 to 119 °C.

Compound `COc1ccc(-c2nc(CCO)nc3cc(OC)c(OC)cc23)cc1OC` showed a melting point of 165 to 166 °C.

In turn, `O=C(CCl)NCc1c(O)c(I)cc2c1CCCC2` registered a melting point of 119 to 125 °C.

As for `O=S(=O)(Br)c1ccc(Cl)s1`, the melting point fell in the range of 35 to 37 °C.

`CCCNC(=O)C(C)(C)Oc1ccc(-c2ccc(N3CCCCC3)cc2)cc1` returned a melting point of 132 to 134 °C.

As to `Cc1nn(-c2ccc(C(F)(F)F)cn2)cc1COc1cc(CCC(=O)O)n(C)n1`, the melting point fell in the range of 154 to 155 °C.

Consider `CNCc1ccc(CSCCNC2=NS(=O)(=O)N=C2NC)o1`, for which the melting point was in the range of 50 to 56 °C.

Compound `CC(=O)Nc1cc(OCc2ccc3c(c2)OCO3)c(C(=O)CCCCCl)cc1Cl` returned a melting point of 108 to 110 °C.

`COc1ccc(-c2ccc(C(C)=NOCCOc3ccc(CC4SC(=O)NC4=O)cc3)cc2)c(OC)c1` (configuration not stated) had a melting point of 186 to 188 °C.

Consider `CCc1ccc2oc(-c3ccc(C=C4C(=O)C5(C)CCC4C5(C)C)cc3)nc2c1` (configuration not stated), for which the melting point fell in the range of 178 to 179 °C.

With `C1=C(c2cccc3c2ccn3Cc2ccccc2)CCN(Cc2ccccc2)C1`, the melting point is 154 °C.

`O=C1CCSc2sccc21` returned a melting point of 61 to 62 °C.

For the compound `CC1(C)C(N)CN1c1nc2c(cc1F)c(=O)c(C(=O)O)cn2C1CC1` (configuration not stated), the melting point lay in the range of 190 to 195 °C.

`O=C(O)C1(CSCc2ccccc2)Cc2ccccc2O1` (configuration not stated) came in with a melting point of 125 to 127 °C.

`Cc1ccc(Cl)c(N)c1C#N` gave a melting point of 77 to 80 °C.

Regarding `Cc1cc(-c2ccc(Cl)cc2)cnc1N`, the melting point stood at 156 °C.

`COc1nc(C)cnc1NS(=O)(=O)c1cccnc1-c1ccc(C=CC(=O)O)cc1`: the melting point was in the range of 233 to 235 °C.

Turning to `COc1ccc2c(c1)c1c(n2Cc2ccc(C(C)(C)C)cc2)COC(=O)C1=O`, the melting point was 238 to 239 °C.

The compound `C/C=C/c1cc(OC)c2oc(-c3ccc(O)c(OC)c3)c(C)c2c1` yielded a melting point of 132 to 133 °C.

In turn, `O=C(O)CCn1c(=O)c(=O)[nH]c2cc(C(F)(F)F)c(-n3cccc3)cc21` yielded a melting point of 190 to 192 °C.

`O=C(OCCOc1ccccc1)c1cccc(NC(=O)C(CS)Cc2ccccc2)c1` (configuration not stated) showed a melting point of 98 to 100 °C.

For the compound `CCC(=O)N(Cc1cnc(Cl)s1)C(=N[N+](=O)[O-])NC`, the melting point is 89 to 90 °C.

Consider `O=[N+]([O-])c1ccc(CCCCCCCCCCCCCCOCCCCCCCCCCCCCCc2ccc([N+](=O)[O-])cc2)cc1`, for which the melting point was in the range of 57 to 60 °C.

`CN(C)C(=O)c1c(S(N)(=O)=O)ccn1C` came in with a melting point of 185 to 190 °C.

As to `CCOC(=O)[C@H](CCc1ccccc1)N[C@@H](C)C(=O)N1N=C(c2ccc(SC)cc2)S[C@H]1C(=O)O`, the melting point was 163 to 164 °C.

Regarding `CC(=O)OC1COC(NNC(=O)C(F)(F)F)C(OC(C)=O)C1OC(C)=O` (configuration not stated), the melting point is 106 °C.

With `Cc1ccc(S(=O)(=O)OCC2CCn3c(nc4ccccc43)S2)cc1` (configuration not stated), the melting point lay in the range of 145 to 147 °C.

Turning to `CN(C)C(=O)c1cc(O)ccc1C=Cc1ccc(O)cc1`, the melting point lay in the range of 184 to 188 °C.

Regarding `CC(=O)Nc1cc(C(=O)NNC(=O)c2occ(-c3ccccc3)c2-c2ccccc2)ccc1O`, the melting point fell in the range of 233 to 235 °C.

`CC1=CC(C)(C)OC1=O` showed a melting point of 54 to 55 °C.

In the case of `CCOc1ncc(N)cc1C(=O)O`, the melting point lay within 260 to 262 °C.

Consider `COc1ccc(/C(=C/C=C/C(=O)Oc2ccc([N+](=O)[O-])cc2)C(C)C)cc1`, for which the melting point was 95 to 96.5 °C.

`CC(=O)c1cc([N+](=O)[O-])ccc1NC(=O)CCl`: the melting point was 162 °C.

Compound `Oc1ccc(Nc2nc(NCc3ccco3)nc(-n3ccnc3)n2)cc1` had a melting point of 244 to 246 °C.

As to `CC(C)c1csc2[nH]cc(C#N)c(=O)c12`, the melting point was found to be 285 °C.

Regarding `CC(C)(C)c1cc(C(=O)N2CCN(c3ccc([N+](=O)[O-])cc3)CC2)cc(C(C)(C)C)c1O`, the melting point turned out to be 160 °C.

`CCCn1c(OCC2CC2(Cl)Cl)nc2sc(Cl)cc2c1=O` (configuration not stated): the melting point lay within 94 to 96 °C.

For `N#Cc1c[nH]c2cc(Cl)c([N+](=O)[O-])cc2c1=O`, the melting point was greater than 300 °C.

In the case of `COc1c(OCC(F)(F)F)ccnc1CO`, the melting point was 107 to 108 °C.

Regarding `CCCN1CCc2c(cccc2NC(C)=O)C1`, the melting point is 123 °C.

`O=C(C=CC(=O)Nc1ccccc1)NCc1cc(Br)cc2[nH]c(=O)c(=O)[nH]c12` showed a melting point greater than 250 °C.

Regarding `COC(=O)c1cccc(OCC(=O)NN=C2C(=O)Nc3ccc(I)cc32)c1`, the melting point came out at 237 °C.

For the compound `CCCCN(C(=O)NC)c1ccc(Cl)c(Cl)c1`, the melting point was 58 °C.

On to `O=c1ccc(-c2ccccc2Cl)n[nH]1`, for which the melting point was 214 to 216 °C.

`COc1ccc2[nH]c3c(C(=O)O)cccc3c2c1` had a melting point of 262 °C.

Consider `C#CC(OC(=O)C1CC1)c1ccc2ccccc2c1` (configuration not stated), for which the melting point was 65 to 66 °C.

Compound `CNc1cc(C(F)(F)F)no1` gave a melting point of 48.5 to 50 °C.

The compound `COc1cc(C=CC(=O)c2ccc(-c3cccs3)s2)ccc1O` returned a melting point of 166 to 168 °C.

Take `CC(C)CCCC(C)C1CCC2C3CCC4=CC(=O)C=CC4(C)C3CCC12C` (configuration not stated): the melting point is 50 to 57 °C.

Take `N#CCN1CCC(c2n[nH]c3cc(F)ccc23)CC1`: the melting point is 149 to 151 °C.

As to `CCOC(=O)c1cnc2c(c1O)CCCCCC2`, the melting point was in the range of 219 to 222 °C.

`COC(=O)C(=O)c1ccc(OCCOc2ccc3cccnc3c2)cc1` showed a melting point of 92 to 94 °C.

Regarding `CC(C)CC(=Cc1ccccc1)C(=O)O`, the melting point lay within 66 to 67.5 °C.

The compound `CCCC1=C(C(=O)OCC)C(c2cccc(OC)c2OC)c2c[nH]nc2N1` (configuration not stated) yielded a melting point of 205 to 206 °C.

`COc1cc2c(cc1OC)/C(=N/OCc1ccc3nonc3c1)CC2` displayed a melting point of 163 to 166 °C.

In the case of `O=C1O[C@@H](Cn2ccnn2)CN1c1ccc(-c2ccc(CO)nc2)c(F)c1`, the melting point is 177 °C.

In turn, `CCOCC(=O)Nc1ccc(Br)c(-n2nc(CC)n(Cc3ccc(-c4ccccc4S(=O)(=O)NC(=O)OC(C)(C)C)cc3F)c2=O)c1` yielded a melting point of 132 to 134 °C.

As for `NC(=O)CCCCCNC(N)=O`, the melting point stood at 208 °C.

The compound `O=C(c1ccc(Cl)cc1)c1cncnc1` yielded a melting point of 110 to 112 °C.

For `Clc1ccc(-n2nc3c(c2Br)CCC3)cc1`, the melting point lay in the range of 109 to 112 °C.

As for `O=C(O)Cc1c(C(=O)c2ccc(OCc3ccccc3)cc2)[nH]c2cc(Cl)ccc12`, the melting point was in the range of 220 to 222 °C.

With `CCCNP(=O)(OC)N1CC(NC(=O)OCc2ccccc2)C1=O` (configuration not stated), the melting point was in the range of 121 to 123 °C.

`O=C(NO)[C@H](CNCS(=O)(=O)c1ccc(OCc2ccccc2)cc1)N1CCCCC1`: the melting point was determined as 102 °C.

`CNC(=O)c1ccc(COCc2csc3nc(C(=O)NCc4cccc(OC)c4)[nH]c(=O)c23)cc1` came in with a melting point of 190 to 191 °C.

On to `CC(=O)Nc1nc(C)c(S(=O)(=O)N(C)CCO)s1`, for which the melting point was found to be 189 °C.

`CCCc1c(OCCCOc2cccnc2CCC(=O)OC)ccc(C(C)=O)c1O`: the melting point was 85 to 87 °C.

Turning to `Cc1cn(C2CC(O)(COCc3ccccc3)C(CO)O2)c(=O)n(COCc2ccccc2)c1=O` (configuration not stated), the melting point lay in the range of 83 to 84 °C.

In turn, `CC(=O)c1ccc(Oc2ccc(O)cc2)cc1` gave a melting point of 159 to 161 °C.

In turn, `CCC(C)NC1=NS(=O)(=O)c2ccc(Cl)cc2N1` (configuration not stated) came in with a melting point of 242 to 245 °C.

`CCCCCCCCCCCCCCCCCc1nc(C(C)N)c[nH]1` (configuration not stated) had a melting point of 38 to 40 °C.

Compound `CC(C)(CCl)C(=O)NO` registered a melting point of 148 to 151 °C.

For the compound `CCc1nc(Cl)c(C=O)n1Cc1ccc2oc(-c3ccccc3NC(=O)OC(C)(C)C)c(Br)c2c1`, the melting point is 65 to 66 °C.

As for `Nc1c(Cl)cc(C(O)CNCCCCCCOCCOCCc2ccccn2)cc1Cl` (configuration not stated), the melting point fell in the range of 45.5 to 46.5 °C.

For `CC(C)CCCC(C)NC1=NS(=O)(=O)c2cc(Cl)ccc2N1` (configuration not stated), the melting point was greater than 220 °C.

In turn, `COc1ccc(NC(=O)N(C)Cc2cccc3c2CN(C2CCC(=O)NC2=O)C3=O)cc1` (configuration not stated) showed a melting point of 245 to 247 °C.

Consider `O=C(COc1ccc(-c2ccccc2Cl)cn1)Nc1cscc1C(=O)O`, for which the melting point fell in the range of 218 to 223 °C.

For `CC1(C)Oc2ccc(Cl)cc2[C@@H](n2ccccc2=O)[C@@H]1O` (relative stereo), the melting point was 250 °C.

`COC(=O)c1nc(-c2ccc(Cl)c(F)c2)c(F)c(N)c1SC` showed a melting point of 125 to 126 °C.

As to `O=Cc1c(Cl)[nH]c2ccccc12`, the melting point is 227 °C.

In turn, `O=C1Nc2cccnc2N(C(=O)CCC#CCN2CCCCC2)c2ccccc21` displayed a melting point of 197 °C.

Compound `CCN(CC)c1nc2n(n1)Cc1ccccc1-2` came in with a melting point of 234 to 236 °C.

Regarding `COCCn1nc2c3c(c(NCCNCCO)ccc31)C(=O)c1c(O)ccc(O)c1-2`, the melting point was in the range of 174 to 178 °C.

As for `CN1CC[C@@H]2CC(=O)c3cc(F)c(F)cc3[C@@H]2C1` (relative stereo), the melting point is greater than 250 °C.

For the compound `CCOC(=O)c1sc2[nH]c(C(=O)c3ccccc3)cc2c1C`, the melting point is 180 to 181 °C.

In the case of `N#CCNC(=O)c1nn(C2CCCCO2)cc1NC(=O)c1ccccn1` (configuration not stated), the melting point is 213 to 214 °C.

Take `CN(C(=O)OC(C)(C)C)[C@H]1CCN(C(=O)c2ccc(-c3[nH]nc4c3C(=O)c3c(NC(=O)NN5CCOCC5)cccc3-4)s2)C1`: the melting point was greater than 300 °C.

For the compound `CCCCCCSCC(O)COc1cccc2oc(C(=O)O)cc(=O)c12` (configuration not stated), the melting point lay in the range of 97 to 100 °C.

The compound `COc1ccc(N2CCN(c3c(C)c(C)c4c(c3C)C(O)(c3ccc(-c5ccccc5)cc3)C(C)(C)O4)CC2)cc1` (configuration not stated) gave a melting point of 182 to 184 °C.

`O=C(N1CC1)C(F)(F)C(O)(Cn1cncn1)c1ccc(F)cc1F` (configuration not stated) displayed a melting point of 87.5 to 88 °C.
